Measured values as given in patent US20170119776A1, “CHIRAL 2,5-DISUBSTITUTED CYCLOPENTANECARBOXYLIC ACID DERIVATIVES AND USE THEREOF” (BAYER PHARMA AKTIENGESELLSCHAFT, priority 2014, published 2017).

Columns and labels:
Type in all cases: biochemical
MMP-9 = target: T1, MMP-9 (Homo sapiens, UniProt P14780); assay: In vitro MMP-9 inhibition test
T1 construct: purchased R&D Systems 911-MP
Description: (§1) The activity strength of the compounds according to the invention towards other MMPs (and therefore their selectivity) is likewise ascertained in in vitro inhibition tests. The MMP-mediated amidolytic cleavage of a suitable peptide substrate also leads here to a fluorescent light increase. The signal intensity of the fluorescent light is directly proportional to the enzyme activity. The active concentration of a test compound at which half of the enzyme is inhibited (50% signal intensity of the fluorescent light) is given as IC50 value.
(§2) Recombinant MMP-9 (R&D Systems, 911-MP) is chemically activated in accordance with the manufacturer's instructions using APMA. 1 μl of the test compound to be analysed (as a solution in DMSO, suitable concentrations e.g. 1 nM to 30 μM) is pipette into 24 μl of activated enzyme (final concentration e.g. 0.1 nM) in reaction buffer (50 mM Tris/HCl pH 7.5, 10 mM CaCl2, 150 mM NaCl, 0.05% Brij®-35) in a white 384-hole microtiter plate (MTP). The enzymatic reaction is started by adding the intramolecularly quenched substrate Mca-Pro-Leu-Gly-Leu-Dpa(Dnp)-Ala-Arg-NH2 (final concentration e.g. 10 μM; R&D Systems, ES-001), such that a total test volume of 50 μl results. The progress of the MMP-9 reaction is measured by measuring the fluorescence intensity (excitation 320 nm, emission 410 nm) over a suitable period (e.g. over 120 min at a temperature of 32° C.).
(§3) The IC50 values were determined for racemates and enantiomers from differently generated DMSO stock solutions. Whereas an automatically produced DMSO stock solution from the internal substance logistics was used for racemates by means of a standard method, in the case of enantiomers a freshly produced, manually prepared DMSO stock solution was used in each case for a more precise direct comparison of the enantiomers with one another.

MMP-13 = target: T2, MMP-13 (Homo sapiens, UniProt P45452); assay: In vitro MMP-13 inhibition test
T2 construct: purchased R&D Systems 511-MP
Description: as §1
as §2, with “MMP-13” for “MMP-9”, “511-MP)” for “911-MP)”
as §3

MMP-14 = target: T3, MMP-14 (Homo sapiens, UniProt P50281); assay: In vitro MMP-14 inhibition test
T3 construct: purchased R&D Systems 918-MP
Description: as §1
Recombinant MMP-14 (R&D Systems, 918-MP) is enzymatically activated in accordance with the manufacturer's instructions using recombinant furin (R&D Systems, 1503-SE). 1 μl of the test compound to be analysed (as a solution in DMSO, suitable concentrations e.g. 1 nM to 30 μM) is pipette into 24 μl of activated enzyme (final concentration e.g. 0.5 nM) in reaction buffer (50 mM Tris/HCl pH 7.5, 10 mM CaCl2, 150 mM NaCl, 0.05% Brij®-35) in a white 384-hole microtiter plate (MTP). The enzymatic reaction is started by adding the intramolecularly quenched substrate Mca-Lys-Pro-Leu-Gly-Leu-Dpa(Dnp)-Ala-Arg-NH2 (final concentration e.g. 5 μM; R&D Systems, ES-010), such that a total test volume of 50 μl results. The progress of the MMP-14 reaction is measured by measuring the fluorescence intensity (excitation 320 nm, emission 410 nm) over a suitable period (e.g. over 120 min at a temperature of 32° C.).
as §3

MMP-12 of the mouse = target: T4, MMP-12 of the mouse (Mus musculus, UniProt P34960); assay: In vitro MMP-12 inhibition test of the mouse (standard / high-sensitivity)
T4 construct: purchased R&D Systems 3467-MP
T4 sequence (P34960 110-473): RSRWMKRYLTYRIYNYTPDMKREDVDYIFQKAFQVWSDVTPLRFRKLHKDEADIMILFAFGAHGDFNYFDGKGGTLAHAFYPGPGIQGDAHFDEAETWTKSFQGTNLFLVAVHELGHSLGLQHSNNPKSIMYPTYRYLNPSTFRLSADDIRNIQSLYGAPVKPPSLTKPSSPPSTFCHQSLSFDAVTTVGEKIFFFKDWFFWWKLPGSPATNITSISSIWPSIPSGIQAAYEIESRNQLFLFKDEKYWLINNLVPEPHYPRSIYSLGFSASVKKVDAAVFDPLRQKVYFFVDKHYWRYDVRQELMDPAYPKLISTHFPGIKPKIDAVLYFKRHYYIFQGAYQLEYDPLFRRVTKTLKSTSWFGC
Description: as §1
Recombinant MMP-12 of the mouse (R&D Systems, 3467-MP) is autocatalytically activated in accordance with the manufacturer's instructions. 1 μl of the test compound to be analysed (as a solution in DMSO, suitable concentrations e.g. 1 nM to 30 μM) is pipetted into 24 μl of activated enzyme (final concentration e.g. 1 nM) in reaction buffer (50 mM Tris/HCl pH 7.5, 10 mM CaCl2, 150 mM NaCl, 0.05% Brij®-35) in a white 384-hole microtiter plate (MTP). The enzymatic reaction is started by adding the intramolecularly quenched substrate Mca-Lys-Pro-Leu-Gly-Leu-Dpa(Dnp)-Ala-Arg-NH2 (final concentration e.g. 5 μM; R&D Systems, ES-010), such that a total test volume of 50 μl results. The progress of the MMP-12 reaction is measured by measuring the fluorescence intensity (excitation 320 nm, emission 410 nm) over a suitable period (e.g. over 120 min at a temperature of 32° C.).
If subnanomolar IC values are produced for high-potency test substances in the above-described MMP-12 inhibition test of the mouse, then a modified test is used for their more precise determination. Here, a ten-fold lower enzyme concentration is used (final concentration e.g. 0.1 nM), in order to achieve an increased sensitivity of the test. The incubation time of the test is correspondingly chosen to be longer (e.g. 16 hours).
Tables 3A and 3B below give the IC50 values from these tests for the inhibition of rodent MMPs for representative embodiment examples of the present invention and also for two structurally related comparison compounds from the prior art (as racemate and separated enantiomer)→(in part as average values from several independent individual determinations and rounded to two significant places). The IC50 values were determined for racemates and enantiomers from differently generated DMSO stock solutions. Whereas an automatically created DMSO stock solution from the internal substance logistics was used for racemates by means of a standard method, in the case of enantiomers, in each case a freshly produced, manually prepared DMSO stock solution was used for a more precise direct comparison of the enantiomers with one another.

T1 sequence (P14780 107-707 limits assumed): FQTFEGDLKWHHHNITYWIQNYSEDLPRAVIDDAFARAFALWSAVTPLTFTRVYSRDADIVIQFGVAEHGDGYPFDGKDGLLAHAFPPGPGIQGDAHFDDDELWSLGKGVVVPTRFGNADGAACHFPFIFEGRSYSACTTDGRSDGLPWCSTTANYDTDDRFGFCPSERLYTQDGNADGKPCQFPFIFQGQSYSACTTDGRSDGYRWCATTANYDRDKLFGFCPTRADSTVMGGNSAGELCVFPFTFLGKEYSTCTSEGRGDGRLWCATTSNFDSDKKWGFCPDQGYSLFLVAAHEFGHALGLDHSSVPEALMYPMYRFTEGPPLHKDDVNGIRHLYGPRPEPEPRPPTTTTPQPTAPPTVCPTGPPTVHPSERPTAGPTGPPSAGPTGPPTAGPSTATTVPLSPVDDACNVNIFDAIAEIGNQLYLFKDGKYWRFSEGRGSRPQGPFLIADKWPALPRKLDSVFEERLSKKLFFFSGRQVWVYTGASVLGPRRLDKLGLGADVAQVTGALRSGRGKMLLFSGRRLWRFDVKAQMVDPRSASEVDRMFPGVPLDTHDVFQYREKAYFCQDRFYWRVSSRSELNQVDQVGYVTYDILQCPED

IC50 (MMP-9) [µM] | IC50 (MMP-13) [µM] | IC50 (MMP-14) [µM] | IC50 (MMP-12 of the mouse) [µM] | Structure (SMILES)
0.0019 | 0.0018 | 0.0029 | < 0.00061 | O=C(O)[C@H]1[C@H](Cn2nnc3ccccc3c2=O)CC[C@@H]1C(=O)c1ccc(-c2ccc(Cl)cc2)cc1 (racemic) [Comparative Example A-1, (1RS,2RS,5SR)-2-[(4′-chlorobiphenyl-4-yl)carbonyl]-5-[(4-oxo-1,2,3-benzotriazin-3(4H)-yl)methyl]cyclopentanecarboxylic acid (racemate)]
1.4 | 1.8 | 3.8 | 0.032 | CCCCCOc1ccc(C(=O)CC(CCn2nnc3ccccc3c2=O)C(=O)O)cc1 (racemic) [Comparative Example B-1, (+/−)-4-Oxo-2-[2-(4-oxo-1,2,3-benzotriazin-3(4H)-yl)ethyl]-4-[4-(pentyloxy)phenyl]butanoic acid (racemate)]
0.03 | 0.03 | 0.027 | 0.00054 | O=C(O)[C@H]1[C@H](Cn2nnc3ccccc3c2=O)CC[C@@H]1C(=O)c1ccc(OCc2ccccc2)cc1 (racemic) [Example 1, (+/−)-(1RS,2RS,5SR)-2-[4-(Benzyloxy)benzoyl]-5-[(4-oxo-1,2,3-benzotriazin-3(4H)-yl)methyl]cyclopentanecarboxylic acid (racemate)]
0.625 | 0.36 | 1.3 | 0.018 | CCCCCOc1ccc(C(=O)CC(CCn2nnc3ccccc3c2=O)C(=O)O)cc1 (single isomer, unassigned; enantiomer 1) [Comparative Example B-2, (+)-4-Oxo-2-[2-(4-oxo-1,2,3-benzotriazin-3(4H)-yl)ethyl]-4-[4-(pentyloxy)phenyl]butanoic acid (enantiomer 1)]
0.023 | 0.0145 | 0.015 | 0.00013 | O=C(O)[C@H]1[C@H](Cn2nnc3ccccc3c2=O)CC[C@@H]1C(=O)c1ccc(OCc2ccccc2)cc1 [Example 2, (+)-(1S,2S,5R)-2-[4-(Benzyloxy)benzoyl]-5-[(4-oxo-1,2,3-benzotriazin-3(4H)-yl)methyl]cyclopentanecarboxylic acid]
0.0011 | 0.00082 | 0.0012 | 0.0001 | O=C(O)[C@@H]1[C@@H](Cn2nnc3ccccc3c2=O)CC[C@H]1C(=O)c1ccc(-c2ccc(Cl)cc2)cc1 (single isomer, unassigned; enantiomer 2) [Comparative Example A-3, (1RS,2RS,5SR)-2-[(4′-Chlorobiphenyl-4-yl)carbonyl]-5-[(4-oxo-1,2,3-benzotriazin-3(4H)-yl)methyl]cyclopentanecarboxylic acid (enantiomer 2)]
